Columns and labels:
Type in all cases: cell-based, human
[1] = tested on: VEGF; test: Western blot of VEGF expression and release by BxPC-3 cells; conditions: 10 μM, 1 day; for expression of vascular endothelial growth factor (VEGF) in BxPC-3 cells: cell extract; for release of VEGF into the extracellular milieu by BxPC-3 cells: supernatant
Experimental: Experiment 2 was designed to determine the effect of ATA, AQA, and AHA on the expression and release of Factor H and VEGF by U251 cells. Cells were grown in DMEM for 24 h at 37° C., after which ATA, AQA, or AHA was added to the medium at a final concentration of 10 μM and incubation carried out for a further 24 h. The medium was drawn off, and the cells washed with PBS. Lysis buffer was then added to the cells. Forty microliters of the cell lysate, or the supernatant media, were loaded onto 12% polyacrylamide gels and separated under non-reducing conditions (70 V, 3-6 h). Following SDS-PAGE, proteins were transferred to a PVDF membrane (Bio-RadTM, CA) at 30 mA for 2 h. The membranes were blocked with 5% milk in PBS-T (80 mM Na2HPO4, 20 mM NaH2PO4, 100 mM NaCl, 0.1% Tween 20, pH 7.4) for 1 h, and incubated overnight at 4° C. with primary antibodies for Factor H (CytotechTM, goat 1/1000) and for VEGF (MilliporeTM, rabbit 1/2000). The membranes were then washed 3 times with PBST. They were then treated with an appropriate horseradish peroxidase (HRP)-conjugated secondary antibody for 3 h at room temperature. The secondary antibodies were anti-rabbit IgG (P0448, DAKOTM, Mississauga, Ontario, CA, 1/2,000) and anti-goat IgG (A[…], MilliporeTM, Billerica, Ma, 1/3,000). The bands were visualized with an enhanced chemiluminescence system and exposure to photographic film (Hyperfilm ECLTM, AmershamTM Pharmacia Biotech, Little Chalfont, UK). For reprobing of membranes with an alternative antibody, the membranes were treated with 10 mL of stripping buffer (3 mL of 1 M Tris-HCl pH 6.7, 10 mL of 10% SDS, 347 μL of 14 M mercaptoethanol, and 36.5 mL deionized water) at 60° C. for 1 h. The membrane was then placed on a shaking incubator for 30 min to clear it of all bound antibodies. The stripped membrane was then treated with a different primary antibody as previously described. Experiment 6 was designed to determine the effect of ATA, AQA, and AHA on the expression and release of Factor H and VEGF by BxPC-3 cells.

[2] = tested on: Factor H; test: Western blot of Factor H expression in BxPC-3 cells; conditions: 10 μM, 1 day, cell extract
Experimental: Experiment 2 was designed to determine the effect of ATA, AQA, and AHA on the expression and release of Factor H and VEGF by U251 cells. Cells were grown in DMEM for 24 h at 37° C., after which ATA, AQA, or AHA was added to the medium at a final concentration of 10 μM and incubation carried out for a further 24 h. The medium was drawn off, and the cells washed with PBS. Lysis buffer was then added to the cells. Forty microliters of the cell lysate, or the supernatant media, were loaded onto 12% polyacrylamide gels and separated under non-reducing conditions (70 V, 3-6 h). Following SDS-PAGE, proteins were transferred to a PVDF membrane (Bio-RadTM, CA) at 30 mA for 2 h. The membranes were blocked with 5% milk in PBS-T (80 mM Na2HPO4, 20 mM NaH2PO4, 100 mM NaCl, 0.1% Tween 20, pH 7.4) for 1 h, and incubated overnight at 4° C. with primary antibodies for Factor H (CytotechTM, goat 1/1000) and for VEGF (MilliporeTM, rabbit 1/2000). The membranes were then washed 3 times with PBST. They were then treated with an appropriate horseradish peroxidase (HRP)-conjugated secondary antibody for 3 h at room temperature. The secondary antibodies were anti-rabbit IgG (P0448, DAKOTM, Mississauga, Ontario, CA, 1/2,000) and anti-goat IgG (A[…], MilliporeTM, Billerica, Ma, 1/3,000). […]

[3] = tested on: VEGF; test: Western blot of VEGF expression and release by A549 cells; conditions: 10 μM, 1 day; for expression of vascular endothelial growth factor (VEGF) in A549 cells: cell extract; for release of VEGF into the extracellular milieu by A549 cells: supernatant
Experimental: Experiment 2 was designed to determine the effect of ATA, AQA, and AHA on the expression and release of Factor H and VEGF by U251 cells. Cells were grown in DMEM for 24 h at 37° C., after which ATA, AQA, or AHA was added to the medium at a final concentration of 10 μM and incubation carried out for a further 24 h. The medium was drawn off, and the cells washed with PBS. Lysis buffer was then added to the cells. Forty microliters of the cell lysate, or the supernatant media, were loaded onto 12% polyacrylamide gels and separated under non-reducing conditions (70 V, 3-6 h). Following SDS-PAGE, proteins were transferred to a PVDF membrane (Bio-Rad™, CA) at 30 mA for 2 h. The membranes were blocked with 5% milk in PBS-T (80 mM Na2HPO4, 20 mM NaH2PO4, 100 mM NaCl, 0.1% Tween 20, pH 7.4) for 1 h, and incubated overnight at 4° C. with primary antibodies for Factor H (Cytotech™, goat 1/1000) and for VEGF (Millipore™, rabbit 1/2000). The membranes were then washed 3 times with PBST. They were then treated with an appropriate horseradish peroxidase (HRP)-conjugated secondary antibody for 3 h at room temperature. The secondary antibodies were anti-rabbit IgG (P0448, DAKO™, Mississauga, Ontario, CA, 1/2,000) and anti-goat IgG (AP106P, Millipore™, Billerica, Ma, 1/3,000). The bands were visualized with an enhanced chemiluminescence system and exposure to photographic film (Hyperfilm ECL™, Amersham™ Pharmacia Biotech, Little Chalfont, UK). For reprobing of membranes with an alternative antibody, the membranes were treated with 10 mL of stripping buffer (3 mL of 1 M Tris-HCl pH 6.7, 10 mL of 10% SDS, 347 μL of 14 M mercaptoethanol, and 36.5 mL deionized water) at 60° C. for 1 h. The membrane was then placed on a shaking incubator for 30 min to clear it of all bound antibodies. The stripped membrane was then treated with a different primary antibody as previously described.
Experiment 6 was designed to determine the effect of ATA, AQA, and AHA on the expression and release of Factor H and VEGF by BxPC-3 cells.
Experiment 10 was designed to determine the effect of ATA, AQA, and AHA on the expression and release of Factor H and VEGF by A549 cells. The protocol was identical to that used in Experiment 6 except A549 cells were used.

[4] = tested on: Factor H; test: Western blot of Factor H expression in A549 cells; conditions: 10 μM, 1 day, cell extract
Experimental: Experiment 2 was designed to determine the effect of ATA, AQA, and AHA on the expression and release of Factor H and VEGF by U251 cells. Cells were grown in DMEM for 24 h at 37° C., after which ATA, AQA, or AHA was added to the medium at a final concentration of 10 μM and incubation carried out for a further 24 h. The medium was drawn off, and the cells washed with PBS. Lysis buffer was then added to the cells. Forty microliters of the cell lysate, or the supernatant media, were loaded onto 12% polyacrylamide gels and separated under non-reducing conditions (70 V, 3-6 h). Following SDS-PAGE, proteins were transferred to a PVDF membrane (Bio-Rad™, CA) at 30 mA for 2 h. The membranes were blocked with 5% milk in PBS-T (80 mM Na2HPO4, 20 mM NaH2PO4, 100 mM NaCl, 0.1% Tween 20, pH 7.4) for 1 h, and incubated overnight at 4° C. with primary antibodies for Factor H (Cytotech™, goat 1/1000) and for VEGF (Millipore™, rabbit 1/2000). The membranes were then washed 3 times with PBST. They were then treated with an appropriate horseradish peroxidase (HRP)-conjugated secondary antibody for 3 h at room temperature. The secondary antibodies were anti-rabbit IgG (P0448, DAKO™, Mississauga, Ontario, CA, 1/2,000) and anti-goat IgG (AP106P, Millipore™, Billerica, Ma, 1/3,000). […]

[5] = tested on: A549 cells; test: DNA laddering (apoptosis) in A549 cells; conditions: 10 μM, 1 day, agarose gel
Experimental: For determination of DNA laddering, which is indicative of DNA disintegration, cells were precipitated by centrifugation, washed, and lysed with […] Tris-HCl, 5 mM EDTA, and 3% Triton-X-100. The lysates were incubated at 37° C. for 1 h and then centrifuged at 12,000g for 10 min. They were treated with phenol/chloroform/isoamylalcohol (25:24:1) and chloroform/isoamylalcohol (24:1) twice each, and precipitated with 0.6 volume isopropyl alcohol and 0.1 volume 3 M sodium actate at −20° C. for 30 min. The precipitates were centrifuged at 12,000 g for 20 min, washed with 70% ethanol and dissolved with TE buffer containing 2 μg/mL bovine RNase. DNAs were electrophoresed in 10 μg/mL ethidium bromide containing 2% w/v agarose gel.
The protocol was identical to that used in Experiment 7 except A549 cells were used.

Substance | expression of vascular endothelial growth factor (VEGF) in BxPC-3 cells [1] | release of VEGF into the extracellular milieu by BxPC-3 cells [1] | expression of Factor H in BxPC-3 cells [2] | expression of vascular endothelial growth factor (VEGF) in A549 cells [3] | release of VEGF into the extracellular milieu by A549 cells [3] | expression of Factor H in A549 cells [4] | DNA fragmentation (180 bp laddering) in A549 cells [5]
aurin hexacarboxylic acid [AHA] | reducing expression | reducing release | reducing expression | reduced expression | reducing release | reduced expression | induced DNA fragmentation
aurin quadracarboxylic acid [AQA] | reducing expression | reducing release | reducing expression | reduced expression | reducing release | reduced expression | induced DNA fragmentation

Reference: patent US10653651B2, “Kit for treating cancer with low molecular weight components of aurin tricarboxylic acid complex” (Aurin Biotech Inc., priority 2014, dated 2020)
